What was measured:
[1] = test system: Cabbage Looper (Trichoplusia ni) ("CL"), second instar larvae; test: Bioassay on cabbage looper (CL), 128-well diet tray assay; type: in vivo; conditions: Trichoplusia ni, read-out: CL (Biological Results, rating)
Summary of the method: (§1)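 Covered trays were held at 25° C. under a 14:10 light-dark cycle for five to seven days. Percent mortality was then scored in each well, and activity across eight wells was averaged.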

[2] = test system: Beet Armyworm (Spodoptera exigua) ("BAW"), second instar larvae; test: Bioassay on beet armyworm (BAW), 128-well diet tray assay; type: in vivo; conditions: Spodoptera exigua, read-out: BAW (Biological Results, rating)
Summary of the method: as §1

| SMILES | pest or weed control at 50 µg/cm2 [1] [%] | pest or weed control at 50 µg/cm2 [2] [%] |
| --- | --- | --- |
| COCOc1cc(-c2ncn(-c3ccc(OC(F)(F)F)cc3)n2)ccc1NC(=O)/N=C1\SCC(=O)N1c1cc(C)ccc1OCC(F)(F)F [Compound J171, (Z)-1-(2-(Methoxymethoxy)-4-(1-(4-(trifluoromethoxy)phenyl)-1H-1,2,4-triazol-3-yl)phenyl)-3-(3-(5-methyl-2-(2,2,2-trifluoroethoxy)phenyl)-4-oxothiazolidin-2-ylidene)urea] | 50 to 100 | 50 to 100 |
| COCOc1cc(-c2ncn(-c3ccc(OC(F)(F)F)cc3)n2)ccc1NC(=O)/N=C1\SCC(=O)N1c1cc(C)ccc1COCC(F)(F)F [Compound J173, (Z)-1-(2-(Methoxymethoxy)-4-(1-(4-(trifluoromethoxy)phenyl)-1H-1,2,4-triazol-3-yl)phenyl)-3-(3-(5-methyl-2-((2,2,2-trifluoroethoxy)methyl)phenyl)-4-oxothiazolidin-2-ylidene)urea] | 50 to 100 | 50 to 100 |
| CCOC(C)c1ccc(C)cc1N1C(=O)CS/C1=N\C(=O)Nc1ccc(-c2ncn(-c3ccc(OC(F)(F)F)cc3)n2)cc1OCOC (stereo not shown) [Compound J174, (Z)-1-(3-(2-(1-Ethoxyethyl)-5-methylphenyl)-4-oxothiazolidin-2-ylidene)-3-(2-(methoxymethoxy)-4-(1-(4-(trifluoromethoxy)phenyl)-1H-1,2,4-triazol-3-yl)phenyl)urea] | 50 to 100 | 50 to 100 |
| Cc1ccc(C(C)C)c(N2C(=O)CS/C2=N\C(=O)Nc2ccc(-c3ncn(-c4ccc(OC(F)(F)F)cc4)n3)cc2O)c1 [Compound J175, (Z)-1-(2-hydroxy-4-(1-(4-(trifluoromethoxy)phenyl)-1H-1,2,4-triazol-3-yl)phenyl)-3-(3-(2-isopropyl-5-methylphenyl)-4-oxothiazolidin-2-ylidene)urea] | 50 to 100 | 50 to 100 |
| Cc1ccc(COCC(F)(F)F)c(N2C(=O)CS/C2=N\C(=O)Nc2ccc(-c3ncn(-c4ccc(OC(F)(F)F)cc4)n3)cc2O)c1 [Compound J178, (Z)-1-(2-Hydroxy-4-(1-(4-(trifluoromethoxy)phenyl)-1H-1,2,4-triazol-3-yl)phenyl)-3-(3-(5-methyl-2-((2,2,2-trifluoroethoxy)methyl)phenyl)-4-oxothiazolidin-2-ylidene)urea] | 50 to 100 | 50 to 100 |
| CCOC(C)c1ccc(C)cc1N1C(=O)CS/C1=N\C(=O)Nc1ccc(-c2ncn(-c3ccc(OC(F)(F)F)cc3)n2)cc1O (stereo not shown) [Compound J179, (Z)-1-(3-(2-(1-Ethoxyethyl)-5-methylphenyl)-4-oxothiazolidin-2-ylidene)-3-(2-hydroxy-4-(1-(4-(trifluoromethoxy)phenyl)-1H-1,2,4-triazol-3-yl)phenyl)urea] | 50 to 100 | 50 to 100 |
| CN(C)c1ccc(C(F)(F)F)c(N2C(=O)CS/C2=N\C(=O)Nc2ccc(-c3ncn(-c4ccc(OC(F)(F)F)cc4)n3)cc2F)c1 [Compound J182, (Z)-1-(3-(5-(Dimethylamino)-2-(trifluoromethyl)phenyl)-4-oxothiazolidin-2-ylidene)-3-(2-fluoro-4-(1-(4-(trifluoromethoxy)phenyl)-1H-1,2,4-triazol-3-yl)phenyl)urea] | 50 to 100 | 50 to 100 |
| CN(C)c1ccc(OCCC(F)(F)F)c(N2C(=O)CS/C2=N\C(=O)Nc2ccc(-c3ncn(-c4ccc(C(F)(F)F)cc4)n3)cc2F)c1 [Compound J184, (Z)-1-(3-(5-(Dimethylamino)-2-(3,3,3-trifluoropropoxy)phenyl)-4-oxothiazolidin-2-ylidene)-3-(2-fluoro-4-(1-(4-(trifluoromethyl)phenyl)-1H-1,2,4-triazol-3-yl)phenyl)urea] | 50 to 100 | 50 to 100 |

Source: patent publication US20230077362A1 (CORTEVA AGRISCIENCE LLC, priority 2019, published 2023)
